Measurements: patent US11008572B2, “Methods and compositions for modulating splicing” (SKYHAWK THERAPEUTICS, INC., priority 2017, dated 2021)
pIC50: −log10 of the molar value. Where two headings read alike, the source gives them in different places.

Test system: FOXM1^A2 mRNA and FOXM1^BC mRNA
Experiment: Splicing assay (FOXM1), qPCR of isoform mRNAs
Assay type: cell-based
Conditions: for pIC50: 24 hours, table does not say EC50 or IC50, read-out: FOXM1; for IC50: FoxM1 BC mRNA decrease (exon included), read-out: Splice IC50 (nM) FoxM1 BC mRNA decrease (exon included); for EC50: read-out: Splice EC50 (nM) FoxM1 A mRNA increase (exon excluded)
Method in brief: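 Cells (20,000/well) treated at plating with compound, 8-point 4-fold series from 10 μM, 0.2% DMSO, 24 h at 37° C. Isoform mRNAs quantified by RT-qPCR against plasmid standards, normalized to PPIA and DMSO control; isoform ratio computed per concentration.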

[1] = Homo sapiens, A673, 24 h, A-673 cells
[2] = Homo sapiens, A-375, 24 h, A-375 cells
[3] = Homo sapiens, BXPC-3, 24 h, BxPC-3 cells
[4] = Homo sapiens, Z-138, 24 h, Z-138 cells

Structure (SMILES) | pIC50 (24 h, MDA-MB-231-luc cells) | pIC50 (24 h, U-118 cells) | IC50 | pIC50 [1] | pIC50 [2] | pIC50 [3] | pIC50 (Homo sapiens, DU-145, 24 h, DU-145 cells) | pIC50 (Homo sapiens, Daoy, 24 h, Daoy cells) | pIC50 (Homo sapiens, G-401, 24 h, G-401 cells) | pIC50 (Homo sapiens, SH-SY5Y, 24 h, SH-SY5Y cells) | pIC50 (Homo sapiens, TT, 24 h, T.T cells) | pIC50 [4] | EC50 | pIC50 (Homo sapiens, Hep3B, 24 h, Hep-3B cells) | pIC50 (Homo sapiens, K562, 24 h, K-562 cells) | pIC50 (Homo sapiens, MDA-MB-468, 24 h, MDA-MB-468 cells) | pIC50 (Homo sapiens, NCI-H358, 24 h, NCI-H358 cells) | pIC50 (Homo sapiens, PANC-1, 24 h, PANC-1 cells) | pIC50 (Homo sapiens, PC-3, 24 h, PC-3 cells) | pIC50 (Homo sapiens, U-87 MG, 24 h, U-87MG cells)
CN(c1ccc(-c2ccc(-c3cn[nH]c3)cc2O)nn1)[C@@H]1C[C@H]2CC[C@@H](C1)N2 [compound 138, 2-(6-(((1R,3s,5S)-8-azabicyclo[3.2.1]octan-3-yl)(methyl)amino)pyridazin-3-yl)-5-(1H-pyrazol-4-yl)phenol] | 7.00 to 7.96 | 7.00 to 7.96 | 10 to 100 nM | 7.00 to 7.96 | 8.00 to 9.00 | 6.70 to 7.00 | 7.00 to 7.96 | 7.00 to 7.96 | 6.70 to 7.00 | 7.00 to 7.96 | 7.00 to 7.96 | 7.00 to 7.96 | 10 to 100 nM | – | – | – | – | – | – | –
CN(c1ccc(-c2ccc(-c3cn[nH]c3)cc2O)nn1)[C@H]1C[C@]2(C)CC[C@](C)(C1)N2 [compound 151, 2-(6-(((1R,3s,5S)-1,5-dimethyl-8-azabicyclo[3.2.1]octan-3-yl)(methyl)amino)pyridazin-3-yl)-5-(1H-pyrazol-4-yl)phenol] | – | – | < 10 nM | 8.00 to 9.00 | 8.00 to 9.00 | – | – | – | – | – | – | – | < 10 nM | 6.70 to 7.00 | 7.00 to 7.96 | 7.00 to 7.96 | 8.00 to 9.00 | 6.70 to 7.00 | 7.00 to 7.96 | 7.00 to 7.96
CN(c1ccc(-c2ccc(-c3cn[nH]c3)cc2O)nn1)[C@@H]1C[C@H]2CCC[C@@H](C1)N2 [compound 160, 2-(6-(((1R,3s,5S)-9-azabicyclo[3.3.1]nonan-3-yl)(methyl)amino)pyridazin-3-yl)-5-(1H-pyrazol-4-yl)phenol] | 7.00 to 7.96 | 8.00 to 9.00 | < 10 nM | 8.00 to 9.00 | > 9.00 | 7.00 to 7.96 | – | – | – | – | – | 8.00 to 9.00 | < 10 nM | – | – | – | – | – | – | –
